As for `Cc1ccc(-n2nc(C)cc2N)cc1`, the melting point (as a rule, the temperature of the solid-liquid transition) fell in the range of 118 to 120 °C.

Compound `CC1(CCc2ccccc2)NC(=O)NC1=O` (stereo not drawn) displayed a melting point of 179 to 181 °C.

Compound `CCCC(=O)NC1CCCNC1` (stereo not drawn) registered a melting point of 57 to 59 °C.

`COc1ccc(C(=O)O)cc1S(=O)(=O)Nc1ccc(C)cc1` displayed a melting point of 258 to 260 °C.

In the case of `O=C(O)CNc1nc2ccccc2s1`, the melting point is 174 to 176 °C.

In the case of `N#Cc1cccc(C(=O)NCc2ccco2)c1`, the melting point lay within 86 to 88 °C.

Consider `O=C(O)c1cc(S)ccc1Cl`, for which the melting point fell in the range of 154 to 156 °C.

For the compound `Nc1ccc(Oc2ccc(Cl)cn2)cc1`, the melting point fell in the range of 70 to 72 °C.

For the compound `COc1cc(C=O)c(-c2ccccc2)cc1OC`, the melting point was 133 to 135 °C.

As for `N#Cc1cc(Br)cc(S(N)(=O)=O)c1`, the melting point was 199 to 201 °C.

For `O=C(c1ccc(S(=O)(=O)Cl)cc1)N1CCOCC1`, the melting point is 110 to 112 °C.

Take `Nc1ccccc1C(=O)NCc1cccnc1`: the melting point is 119 to 121 °C.

Turning to `Cc1cc(OCCO)ccc1N`, the melting point fell in the range of 62 to 64 °C.

Regarding `CS(=O)(=O)NCCBr`, the melting point lay within 44 to 46 °C.

For `CC(C)(C)n1cc(C#N)c(N)n1`, the melting point lay in the range of 121 to 123 °C.

For `CCOc1ccc2ccccc2c1CO`, the melting point lay in the range of 49 to 51 °C.

On to `COC(=O)Nc1ccc(N)cc1F`, for which the melting point was in the range of 72 to 74 °C.

For the compound `N#Cc1ccc(CNC(=O)CCl)cc1`, the melting point lay within 142 to 144 °C.

Regarding `CCN(c1ccccc1)S(=O)(=O)c1cccc(C(=O)O)c1`, the melting point was in the range of 175 to 177 °C.

For the compound `COc1ccc2cc(C=O)c(Cl)nc2c1`, the melting point was 84 to 86 °C.

The compound `O=C(O)C1CCCN(C(=O)Cc2ccccc2)C1` (stereo not drawn) displayed a melting point of 112 to 114 °C.

`O=C(O)c1cc(Cl)cc(Cl)c1I` displayed a melting point of 173 to 175 °C.

On to `COc1ccc(C)cc1C(=O)CBr`, for which the melting point was in the range of 73 to 75 °C.

With `NS(=O)(=O)c1ccc(C(=O)O)cc1Br`, the melting point was in the range of 201 to 203 °C.

`O=C(O)c1cnc(COc2ccccc2)s1` yielded a melting point of 174 to 176 °C.

The compound `CC(C)(C)OC(=O)N1CCC2(CC1)CC2C(=O)O` (stereo not drawn) registered a melting point of 123 to 125 °C.

In the case of `Sc1nnnn1-c1ccc(Cl)cc1`, the melting point was in the range of 162 to 164 °C.

Compound `O=C(O)Cc1cc(-c2ccccc2)on1` came in with a melting point of 172 to 174 °C.

`Cc1cnc(C#N)c(C)c1` showed a melting point of 58 to 60 °C.

As to `CC(C)(C)OC(=O)N1CC[C@H](O)C1`, the melting point was 60 to 62 °C.

Consider `CC(Cl)C(=O)Nc1cccc(I)c1` (stereo not drawn), for which the melting point is 94 to 96 °C.

The compound `Nc1cc(Cl)ccc1C(=O)N1CCCC1` yielded a melting point of 118 to 120 °C.

Take `Cc1ccc(C(=O)O)n1C`: the melting point lay within 149 to 151 °C.

In the case of `N=c1sccn1CC(=O)O`, the melting point is 243 to 247 °C.

The compound `O=C(Nc1ccc(S(=O)(=O)Cl)cc1)c1ccc(F)cc1` yielded a melting point of 149 to 151 °C.

As for `CS(=O)(=O)Nc1ccc(S(=O)(=O)Cl)cc1F`, the melting point is 164 to 166 °C.

Compound `O=C(O)c1ccc(CN2C(=O)C=CC2=O)cc1` showed a melting point of 163 to 165 °C.

The compound `Cc1cc(-n2c(C)cc(C(=O)O)c2C)no1` had a melting point of 175 to 180 °C.

For `Nc1cc2c(cc1F)CCC(=O)N2`, the melting point is 174 to 176 °C.

`COc1cc(S(=O)(=O)Nc2ccc3c[nH]nc3c2)ccc1Br` yielded a melting point of 199 to 201 °C.

`O=c1ccn(C2CC2)c(S)n1` had a melting point of 238 to 240 °C.

Turning to `CC(C)(C)Sc1ccc(C(N)=S)cc1`, the melting point lay in the range of 163 to 165 °C.

In turn, `CCOC(=O)c1nn(-c2ccccc2)cc1/C=N/O` yielded a melting point of 111 to 113 °C.

For `OC(CC1COCCN1)c1ccco1` (stereo not drawn), the melting point was in the range of 84 to 86 °C.

With `Nc1ncc(Cc2cccc(F)c2)s1`, the melting point was 82 to 84 °C.

`O=C(O)C1(c2ccc(Br)cc2)CCOCC1` came in with a melting point of 195 to 197 °C.

With `Cc1ccoc1C(=O)CC#N`, the melting point lay in the range of 93 to 95 °C.

Take `Cc1ccc2[nH]c3c(c2c1)CC(C)(C)CC3`: the melting point fell in the range of 114 to 116 °C.

As to `CN(C)c1ccc(C#N)c(F)c1`, the melting point is 56 to 58 °C.

As for `C#Cc1cccc(NC(=O)CBr)c1`, the melting point fell in the range of 118 to 120 °C.

In turn, `NC(=NO)c1ccc(-n2cnc3ccccc32)nc1` yielded a melting point of 214 to 216 °C.

`O=C(O)CNC(=O)c1ccc(Br)s1` yielded a melting point of 177 to 179 °C.

Consider `CC(Cl)C(=O)NC1CCN(Cc2ccccc2)CC1` (stereo not drawn), for which the melting point was in the range of 119 to 121 °C.

Consider `CN(C)c1cccc(-c2nnc(S)n2N)c1`, for which the melting point lay within 209 to 211 °C.

For the compound `CCc1sc(N)c(C(N)=O)c1C`, the melting point was in the range of 134 to 136 °C.

As for `COc1cccc2[nH]cc(CC(=O)O)c12`, the melting point lay in the range of 174 to 176 °C.

Consider `CCOc1cc(C(=O)O)cc(Cl)c1O`, for which the melting point lay within 204 to 206 °C.

The compound `COC(=O)c1cncnc1O` yielded a melting point of 201 to 203 °C.

With `NC1=NS(=O)(=O)c2ccccc21`, the melting point lay within 279 to 281 °C.

`NC(=O)c1nnc(O)nc1O` gave a melting point of 294 to 296 °C.

`ClCCc1nnnn1-c1ccccc1`: the melting point was 45 to 47 °C.

The compound `Cc1cc(C)n(-c2ccc(C(F)(F)F)cc2N)n1` yielded a melting point of 85 to 87 °C.

In turn, `Cc1ccc2cc(C(=O)O)c(C)nc2c1` gave a melting point of 197 to 199 °C.

The compound `O=C(O)C1(c2cccc(Cl)c2)CC1` had a melting point of 135 to 137 °C.

`O=C(O)Cn1ncc2ccccc21` registered a melting point of 188 to 190 °C.

As to `COC(=O)c1ccc(CCC(=O)O)cc1`, the melting point fell in the range of 113 to 115 °C.

With `O=C(O)CNS(=O)(=O)C1CCS(=O)(=O)C1` (stereo not drawn), the melting point fell in the range of 306 to 308 °C.

In turn, `NC(=O)c1cccc(NCc2ccc(F)cc2)c1` returned a melting point of 136 to 138 °C.

Consider `N#Cc1ccc(-n2cc(C#N)c(N)n2)c(F)c1`, for which the melting point is 258 to 260 °C.

In turn, `CN(C)c1ccc([N+](=O)[O-])cc1C(=O)O` displayed a melting point of 149 to 151 °C.

`O=C(O)c1cccnc1-n1ccnc1` had a melting point of 179 to 181 °C.

Compound `Brc1cnc2nccnc2c1` had a melting point of 158 to 160 °C.

In turn, `CC(=O)Nc1cc(F)c(F)cc1N` returned a melting point of 162 to 164 °C.

Compound `Nc1ccnn1Cc1ccccn1` registered a melting point of 68 to 70 °C.

In turn, `O=C(O)C(CO)NS(=O)(=O)c1ccc(Br)cc1` (stereo not drawn) registered a melting point of 239 to 241 °C.

The compound `Cc1ccc(S(=O)(=O)Oc2ncnc3c(F)cc(Br)cc23)cc1` gave a melting point of 204 to 206 °C.

`NC(=O)CCOc1ccccc1N` yielded a melting point of 98 to 100 °C.

The compound `O=C(O)c1cc(=O)c2cc(Br)ccc2[nH]1` registered a melting point of 297 to 299 °C.

As for `COc1ccc(Br)c2[nH]c(C(=O)O)cc12`, the melting point was 246 to 248 °C.

As to `CC(C)n1ncc(C(=O)O)c1C(F)(F)F`, the melting point is 125 to 127 °C.

In turn, `O=C(O)CC1OCCc2ccsc21` (stereo not drawn) displayed a melting point of 109 to 111 °C.

For `COc1cc2ncc(O)nc2cc1OC`, the melting point lay within 266 to 268 °C.

As for `c1ccc2sc(NC3CCCCC3)nc2c1`, the melting point was in the range of 100 to 102 °C.

On to `NC1CCCCC1CO` (stereo not drawn), for which the melting point is 132 to 135 °C.

For the compound `COC(=O)C1=C(C)NC(C)=C(C(=O)OC)C1C(=O)O`, the melting point fell in the range of 128 to 130 °C.

Consider `Nc1ccc(NC(=O)c2cccs2)cc1`, for which the melting point is 166 to 168 °C.

The compound `N#CCC(=O)c1cc2ccccc2o1` had a melting point of 146 to 148 °C.

Turning to `CC(C(=O)O)c1ccc(Br)s1` (stereo not drawn), the melting point was 55 to 57 °C.

Regarding `Cc1n[nH]c(-c2ccccc2C)n1`, the melting point lay in the range of 141 to 143 °C.

As for `CCOc1c(F)cccc1C(=O)O`, the melting point lay within 43 to 45 °C.

Take `CC1(O)C(=O)Nc2ccccc21` (stereo not drawn): the melting point fell in the range of 156 to 158 °C.

In turn, `O=C(O)CCNC(=O)c1cc(F)ccc1Br` yielded a melting point of 112 to 114 °C.

`OC1(Cc2ccc(F)cc2F)CC2CCC(C1)N2` (stereo not drawn) yielded a melting point of 142 to 144 °C.

Take `Cc1ccc(C)n1-c1nc(CC(=O)O)cs1`: the melting point lay within 100 to 102 °C.

As to `NC(=O)N1CCC(N)CC1`, the melting point was in the range of 64 to 66 °C.

Compound `Cc1n[nH]c(C)c1SCC(=O)O` yielded a melting point of 153 to 155 °C.

In turn, `CS(=O)(=O)Nc1ccc(Br)cc1Cl` yielded a melting point of 98 to 100 °C.

As to `C1Cc2nn[nH]c2CN1`, the melting point lay within 154 to 156 °C.

`O=C(O)C1CCC(=O)N(Cc2ccccc2)C1c1ccccc1` (stereo not drawn) gave a melting point of 164 to 166 °C.

`O=C(O)CCNC(=O)c1ccccc1Cl` yielded a melting point of 82 to 84 °C.

Turning to `O=C(O)Cn1cccnc1=O`, the melting point was in the range of 211 to 213 °C.

Regarding `Nc1c(Br)ccc(Br)c1C(=O)O`, the melting point fell in the range of 145 to 147 °C.

`CC(O)c1ccc(O)cc1` (stereo not drawn) displayed a melting point of 131 to 133 °C.

The compound `O=Cc1cnc2ncccn12` yielded a melting point of 197 to 199 °C.

Consider `Cc1cc([N+](=O)[O-])cc(S(=O)(=O)Cl)c1C`, for which the melting point was in the range of 66 to 68 °C.

For `O=C1CCc2c(Cl)cc(Br)cc21`, the melting point was in the range of 124 to 126 °C.

In turn, `Nc1ncc(Cc2ccccc2)s1` returned a melting point of 106 to 108 °C.

On to `Nc1cc(I)ccc1Br`, for which the melting point was 64 to 66 °C.

Consider `CCS(=O)(=O)c1ccc2c(c1)N(CC(=O)O)CC(=O)O2`, for which the melting point lay within 188 to 190 °C.

Compound `CC(C)Oc1ccccc1CC(=O)O` registered a melting point of 92 to 94 °C.

For the compound `CS(=O)(=O)Nc1ccccc1Br`, the melting point is 79 to 81 °C.

With `COc1ccc2ocnc2c1`, the melting point fell in the range of 75 to 77 °C.

Compound `O=C(Nc1cccc(CO)c1)c1ccccc1` came in with a melting point of 114 to 116 °C.

Regarding `Nc1ccc(=O)n(Cc2ccc(Cl)c(Cl)c2)c1`, the melting point is 131 to 133 °C.

`Clc1ccc(-c2nnc(Cl)c3ccccc23)cc1Cl` registered a melting point of 219 to 221 °C.

`O=C(O)c1oc2ccccc2c1COc1ccccc1Cl` came in with a melting point of 190 to 192 °C.

Compound `CS(=O)(=O)Nc1ccc(-c2csc(N)n2)cc1` returned a melting point of 196 to 198 °C.

For `O=C(O)Cc1ccc2c(c1)CCO2`, the melting point lay within 102 to 104 °C.

In turn, `CC(=O)c1ccc(S(N)(=O)=O)cc1` yielded a melting point of 178 to 180 °C.

`COc1c(F)c(F)c(N)c(F)c1F`: the melting point lay within 78 to 80 °C.

`Nc1nc(-c2cccc([N+](=O)[O-])c2)cs1` returned a melting point of 186 to 188 °C.

As to `CCOC(=O)c1cc(C)n(CC(=O)O)c1C`, the melting point lay within 86 to 88 °C.

In the case of `CCC(=CC(=O)O)c1ccc(OC)cc1`, the melting point is 130 to 132 °C.

The values are drawn from a melting point compilation (Tetko et al.).
